Molecules are shown by their SMILES. Activity calls are given as the source filed them.

Experiment [1] deals with HEK293. Kind of experiment: HEK cell cytotoxicity by LDH release, dose response, cytotoxicity control for IDE activator project, fluorescence, HEK cells (AID 588440).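 Note: cytotoxicity by LDH release measuring loss of membrane integrity.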 The following applies: Homo sapiens. Type of experiment: functional, cell-based.
The target in experiment [2] is T1, Insulin-degrading enzyme (Homo sapiens, UniProt P14735).
T1 sequence (P14735 whole entry): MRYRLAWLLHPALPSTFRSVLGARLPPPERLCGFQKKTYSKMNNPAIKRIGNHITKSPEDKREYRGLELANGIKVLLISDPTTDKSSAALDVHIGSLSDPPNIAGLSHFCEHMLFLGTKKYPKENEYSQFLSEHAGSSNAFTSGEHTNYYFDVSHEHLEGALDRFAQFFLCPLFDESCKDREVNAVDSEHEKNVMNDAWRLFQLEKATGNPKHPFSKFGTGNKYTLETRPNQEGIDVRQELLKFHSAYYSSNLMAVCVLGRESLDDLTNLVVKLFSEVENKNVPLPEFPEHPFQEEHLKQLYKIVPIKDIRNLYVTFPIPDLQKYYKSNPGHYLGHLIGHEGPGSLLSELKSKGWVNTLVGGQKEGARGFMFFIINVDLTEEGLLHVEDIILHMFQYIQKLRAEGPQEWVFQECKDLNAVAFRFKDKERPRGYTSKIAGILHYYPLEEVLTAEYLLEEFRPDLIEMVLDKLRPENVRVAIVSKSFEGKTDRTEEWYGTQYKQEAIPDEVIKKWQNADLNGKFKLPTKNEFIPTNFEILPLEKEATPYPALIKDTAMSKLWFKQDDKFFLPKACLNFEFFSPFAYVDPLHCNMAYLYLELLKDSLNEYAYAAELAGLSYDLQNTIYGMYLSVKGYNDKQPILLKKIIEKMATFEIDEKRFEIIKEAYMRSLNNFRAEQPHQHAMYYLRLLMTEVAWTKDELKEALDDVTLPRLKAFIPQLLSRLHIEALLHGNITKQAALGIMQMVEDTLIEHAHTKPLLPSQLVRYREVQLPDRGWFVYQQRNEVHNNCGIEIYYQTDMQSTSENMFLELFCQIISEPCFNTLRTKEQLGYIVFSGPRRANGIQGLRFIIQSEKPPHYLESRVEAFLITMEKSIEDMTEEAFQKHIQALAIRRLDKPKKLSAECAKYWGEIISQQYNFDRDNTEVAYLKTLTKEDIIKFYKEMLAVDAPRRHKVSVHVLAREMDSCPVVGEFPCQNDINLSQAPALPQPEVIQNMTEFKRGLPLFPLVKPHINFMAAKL
Kind of experiment: activators of endogenous IDE in HEK cells, dose response, cell-based, fluorescence polarization (AID 588439). Type of experiment: functional. (Polarisation of emitted light reports the rotation of a fluorescent probe.)

Experiment [3] has as its target T1, Insulin-degrading enzyme. Kind of experiment: activators of recombinant IDE enzyme, dose response, counter-screen for IDE activator project, biochemical, fluorescence polarization (AID 588681).
In experiment [4] the test system is HEK293. Kind of experiment: optical interference in Abeta FP readout, dose response, artefact control for IDE activator project, biochemical, fluorescence polarization (AID 588442). The following applies: Homo sapiens. Type of experiment: functional, cell-based.
Experiment [5] has as its target DNA dC->dU-editing enzyme APOBEC-3G (Homo sapiens, UniProt Q9HC16). Kind of experiment: APOBEC3G deaminase inhibitors, SAR follow-up, biochemical, fluorescence, single-stranded DNA substrate (AID 602136). The class given is functional. Particulars: read-out: IC50_Mean.
In experiment [6] the target is DNA dC->dU-editing enzyme APOBEC-3A (Homo sapiens, UniProt P31941). Kind of experiment: SAR analysis of small molecule inhibitors of APOBEC3A DNA Deaminase via a fluorescence-based single-stranded DNA deaminase assay. Type of experiment: functional. The following applies: read-out: IC50_Mean.
For experiment [7], the target named is Dual specificity mitogen-activated protein kinase kinase 1 (Homo sapiens, UniProt Q02750). Kind of experiment: Navigating the Kinome. Panel member name: MAP2K1. The class given is functional.
Experiment [8] concerns the target Serine/threonine-protein kinase Chk1 (Homo sapiens, UniProt O14757). Type of experiment: functional.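 Note: measured as one member of a kinome-wide kinase profiling panel.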
Experiment [9] addresses T2, Apoptotic protease-activating factor 1 (Homo sapiens, UniProt O14727).
T2 sequence (O14727 whole entry): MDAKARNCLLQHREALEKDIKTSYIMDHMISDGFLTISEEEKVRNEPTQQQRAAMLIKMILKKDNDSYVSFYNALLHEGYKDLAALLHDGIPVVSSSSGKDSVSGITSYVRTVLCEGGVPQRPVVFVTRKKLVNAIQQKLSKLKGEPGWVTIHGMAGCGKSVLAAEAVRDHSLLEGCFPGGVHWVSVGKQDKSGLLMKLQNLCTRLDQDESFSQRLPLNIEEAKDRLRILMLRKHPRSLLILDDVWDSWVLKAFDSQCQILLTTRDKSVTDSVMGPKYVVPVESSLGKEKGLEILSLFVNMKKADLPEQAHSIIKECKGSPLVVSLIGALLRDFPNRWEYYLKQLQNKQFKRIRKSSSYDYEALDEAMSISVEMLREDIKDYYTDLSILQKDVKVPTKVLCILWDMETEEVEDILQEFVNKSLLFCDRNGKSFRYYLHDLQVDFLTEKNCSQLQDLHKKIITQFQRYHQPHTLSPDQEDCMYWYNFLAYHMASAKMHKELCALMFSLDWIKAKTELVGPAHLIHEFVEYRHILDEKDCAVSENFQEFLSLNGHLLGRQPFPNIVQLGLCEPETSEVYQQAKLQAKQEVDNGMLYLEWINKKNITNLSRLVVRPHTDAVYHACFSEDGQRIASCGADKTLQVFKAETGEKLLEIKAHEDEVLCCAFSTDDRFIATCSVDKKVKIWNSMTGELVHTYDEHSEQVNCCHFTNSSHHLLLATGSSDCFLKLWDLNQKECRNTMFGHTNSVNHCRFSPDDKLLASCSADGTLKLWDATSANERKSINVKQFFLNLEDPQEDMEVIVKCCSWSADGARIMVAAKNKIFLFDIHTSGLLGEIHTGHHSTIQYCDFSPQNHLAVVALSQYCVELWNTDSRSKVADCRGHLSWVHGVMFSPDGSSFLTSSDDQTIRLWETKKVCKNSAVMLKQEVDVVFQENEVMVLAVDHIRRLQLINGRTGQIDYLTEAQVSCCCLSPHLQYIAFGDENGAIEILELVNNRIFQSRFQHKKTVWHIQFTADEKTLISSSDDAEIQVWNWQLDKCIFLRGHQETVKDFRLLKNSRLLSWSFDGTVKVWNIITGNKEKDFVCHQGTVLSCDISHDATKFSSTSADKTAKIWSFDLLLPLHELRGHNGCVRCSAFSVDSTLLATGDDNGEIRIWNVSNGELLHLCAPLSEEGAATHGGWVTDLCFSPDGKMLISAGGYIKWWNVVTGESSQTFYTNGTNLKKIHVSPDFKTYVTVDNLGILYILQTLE
Kind of experiment: SAR analysis of small molecule Inhibitors of Apaf-1 in a Fluorescent assay - set 2. The class given is functional. The following applies: read-out: IC50_Mean.

The nature of experiment [10]: SAR analysis of small molecule inhibitors of Apaf-1 using a LZ-Caspase-9/Caspase-3 Fluorescent Selectivity assay - Set 2. The class given is functional. Particulars: read-out: IC50_Mean.
Experiment [11] is described as follows: Vero cell cytotoxicity, cytotoxicity control for M. tuberculosis inhibitor project, purified and synthesized samples, set 3 (AID 504684). The class given is functional. Particulars: […].
Experiment [12] can be described thus: THP-1 cell cytotoxicity, dose response, cytotoxicity control, set 3 (AID 504852). The class given is functional. The following applies: Mycobacterium tuberculosis.

Chain of Dual specificity mitogen-activated protein kinase kinase 1 (Q02750 whole entry): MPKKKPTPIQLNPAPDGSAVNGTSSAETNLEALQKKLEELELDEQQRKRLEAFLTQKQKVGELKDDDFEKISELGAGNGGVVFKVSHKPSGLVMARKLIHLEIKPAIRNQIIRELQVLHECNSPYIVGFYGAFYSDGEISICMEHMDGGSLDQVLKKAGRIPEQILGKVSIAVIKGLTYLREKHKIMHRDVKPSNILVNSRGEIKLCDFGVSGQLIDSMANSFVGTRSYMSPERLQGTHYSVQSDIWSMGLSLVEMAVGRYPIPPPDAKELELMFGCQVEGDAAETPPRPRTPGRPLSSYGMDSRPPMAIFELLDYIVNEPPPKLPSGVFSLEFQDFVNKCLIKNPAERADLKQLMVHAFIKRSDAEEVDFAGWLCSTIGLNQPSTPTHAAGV
Chain of DNA dC->dU-editing enzyme APOBEC-3G (Q9HC16 whole entry): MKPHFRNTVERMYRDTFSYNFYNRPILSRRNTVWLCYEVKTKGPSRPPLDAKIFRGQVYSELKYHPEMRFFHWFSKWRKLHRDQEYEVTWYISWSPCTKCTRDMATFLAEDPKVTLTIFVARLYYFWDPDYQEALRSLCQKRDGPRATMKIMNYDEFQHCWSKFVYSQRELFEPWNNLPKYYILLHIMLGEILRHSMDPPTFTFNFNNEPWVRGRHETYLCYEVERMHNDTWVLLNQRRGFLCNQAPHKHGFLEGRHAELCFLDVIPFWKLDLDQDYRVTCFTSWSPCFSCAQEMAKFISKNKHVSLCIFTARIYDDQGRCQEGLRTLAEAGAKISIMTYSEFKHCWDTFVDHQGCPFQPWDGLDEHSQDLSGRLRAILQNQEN
Chain of Serine/threonine-protein kinase Chk1 (O14757 whole entry): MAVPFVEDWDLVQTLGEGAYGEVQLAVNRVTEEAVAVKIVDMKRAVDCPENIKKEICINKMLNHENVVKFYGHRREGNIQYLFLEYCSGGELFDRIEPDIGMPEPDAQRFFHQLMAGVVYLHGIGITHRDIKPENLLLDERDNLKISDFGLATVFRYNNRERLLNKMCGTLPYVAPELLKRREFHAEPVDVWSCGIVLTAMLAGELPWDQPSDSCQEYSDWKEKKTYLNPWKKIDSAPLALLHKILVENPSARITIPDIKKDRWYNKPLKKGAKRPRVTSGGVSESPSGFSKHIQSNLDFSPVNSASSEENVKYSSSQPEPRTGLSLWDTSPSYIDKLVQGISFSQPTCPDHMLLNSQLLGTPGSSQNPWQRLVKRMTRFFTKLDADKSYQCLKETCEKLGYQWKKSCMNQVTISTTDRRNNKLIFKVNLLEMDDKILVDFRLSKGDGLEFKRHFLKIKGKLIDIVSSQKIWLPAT
Chain of DNA dC->dU-editing enzyme APOBEC-3A (P31941 whole entry): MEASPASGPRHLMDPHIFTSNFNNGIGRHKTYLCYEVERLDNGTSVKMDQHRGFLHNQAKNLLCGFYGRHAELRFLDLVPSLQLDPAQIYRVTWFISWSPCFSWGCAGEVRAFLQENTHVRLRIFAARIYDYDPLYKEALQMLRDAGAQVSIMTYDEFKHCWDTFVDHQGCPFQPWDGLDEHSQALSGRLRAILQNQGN

For the compound `O=C(O)c1ccccc1NC(=O)C1CCN(S(=O)(=O)c2cccc3nsnc23)CC1`, the IC50 in experiment [1] was > 89.2 µM (inactive). For the same compound, the EC50 (as a rule, the concentration needed to bring the measured effect to its halfway point) was > 18.2 µM (inactive) in experiment [2], > 54.7 µM (inactive) in [3] and 2.44 µM (active) in experiment [4].

`CN1CC2=C(N=C1NCCCO)c1ccccc1CC21CCCCC1`: the IC50 in [5] and in [6] was > 99 µM (inactive) throughout.

As for `CN(C)Cc1ccc2c(c1)NC(=O)C1CCCN21` (configuration not stated), the results for the Ki in [7] and in experiment [8] were 3.16 µM (active) and 1.58 µM (active), respectively.

On to `Cc1cc(C)c2c(c1)N(Cc1ccc(Cl)c(Cl)c1)C(=O)C2=O`, for which the IC50 in experiment [9] was 42 µM (active); in experiment [10], 20.1 µM (active).

For the compound `COC(=O)c1ccc(CNc2c(N3CCCC3)c(=O)c2=O)cc1`, the CC50 in experiment [11] and in [12] was > 100 µM (active) in each case.

Source of the values: ChEMBL document CHEMBL1201862, “PubChem BioAssay data set” (2004).
